Test results reported in patent US20240116922A1, “IMIDAZO[1,2-A]PYRIDINE DERIVATIVES AS IRAK4 INHIBITORS AND THEIR USE IN THE TREATMENT OF DISEASE” (BIOGEN MA INC., priority 2020, published 2024).
Converted amounts (≈) assume the structure as drawn.

Assay: Kinetic solubility assay (CLND), pH 6.8
Format: physicochemical
Conditions: aqueous buffer, kinetic from dmso stock; potassium phosphate buffer pH 6.8, 2% DMSO, 24 hours at ambient temperature

| solubility kinetic at 24 h [µg/mL] | Compound |
| --- | --- |
| 20.7 (≈ 45.6 µM) | CC(C)Oc1nc2nc(C34COC(C3)C4)cn2cc1C(=O)Nc1cccn([C@@H]2C[C@@H]2F)c1=O (single isomer, unassigned) [Example 88] |
| 62.8 (≈ 135 µM) | CC(C)Oc1nc2nc(C34COC(C)(C3)C4)cn2cc1C(=O)Nc1cccn([C@@H]2C[C@H]2C)c1=O (single isomer, unassigned) [Example 156] |
| 73 (≈ 152 µM) | CC(C)Oc1nc2nc([C@@]34CC[C@@](C)(C3)OC4)cn2cc1C(=O)Nc1cccn([C@H]2C[C@@H]2F)c1=O (single isomer, unassigned) [Example 123] |
| 35.3 (≈ 76.2 µM) | CC(C)Oc1nc2nc(C34COC(C)(C3)C4)cn2cc1C(=O)Nc1cccn([C@@H]2C[C@H]2C)c1=O (racemic) [Example 95, (rac)-trans-7-isopropoxy-2-(1-methyl-2-oxabicyclo[2.1.1]hexan-4-yl)-N-(1-(2-methylcyclopropyl)-2-oxo-1,2-dihydropyridin-3-yl)imidazo[1,2-a]pyrimidine-6-carboxamide] |
| 48.4 (≈ 107 µM) | CC(C)Oc1nc2nc(C34COC(C3)C4)cn2cc1C(=O)Nc1cccn([C@@H]2C[C@@H]2F)c1=O (racemic) [Example 87, (rac)-Cis-2-(2-oxabicyclo[2.1.1]hexan-4-yl)-N-(1-(2-fluorocyclopropyl)-2-oxo-1,2-dihydropyridin-3-yl)-7-isopropoxyimidazo[1,2-a]pyrimidine-6-carboxamide] |
| 48.8 (≈ 101 µM) | CC(C)Oc1nc2nc([C@@]34CC[C@@](C)(C3)OC4)cn2cc1C(=O)Nc1cccn([C@@H]2C[C@H]2F)c1=O (single isomer, unassigned) [Example 122] |
| 23.9 (≈ 52.7 µM) | CC(C)Oc1nc2nc(C34COC(C3)C4)cn2cc1C(=O)Nc1cccn([C@H]2C[C@H]2F)c1=O (single isomer, unassigned) [Example 89] |
| 59.5 (≈ 128 µM) | CC(C)Oc1cc2nc(C34COC(C)(C3)C4)cn2cc1C(=O)Nc1cccn([C@@H]2C[C@@H]2F)c1=O (racemic) [Example 97, (rac)-Cis-N-(1-(2-fluorocyclopropyl)-2-oxo-1,2-dihydropyridin-3-yl)-7-isopropoxy-2-(1-methyl-2-oxabicyclo[2.1.1]hexan-4-yl)imidazo[1,2-a]pyridine-6-carboxamide] |
| 37.2 (≈ 79.7 µM) | CC(C)Oc1cc2nc(C34COC(C)(C3)C4)cn2cc1C(=O)Nc1cccn([C@@H]2C[C@H]2F)c1=O (single isomer, unassigned) [Example 154] |
| 33.9 (≈ 70.4 µM) | CC(C)Oc1nc2nc([C@]34CC[C@](C)(C3)OC4)cn2cc1C(=O)Nc1cccn([C@H]2C[C@@H]2F)c1=O (single isomer, unassigned) [Example 121] |
| 76.7 (≈ 159 µM) | CC(C)Oc1nc2nc([C@]34CC[C@](C)(C3)OC4)cn2cc1C(=O)Nc1cccn([C@@H]2C[C@H]2F)c1=O (single isomer, unassigned) [Example 120] |
| 8.9 (≈ 19.8 µM) | CC(C)Oc1nc2nc(C34COC(C)(C3)C4)cn2cc1C(=O)Nc1ccnn(C2CC2)c1=O [Example 71, N-(2-cyclopropyl-3-oxo-2,3-dihydropyridazin-4-yl)-7-isopropoxy-2-(1-methyl-2-oxabicyclo[2.1.1]hexan-4-yl)imidazo[1,2-a]pyrimidine-6-carboxamide] |
| 66 (≈ 133 µM) | COCC12CC(c3cn4cc(C(=O)Nc5cccn([C@H]6C[C@H]6F)c5=O)c(OC(C)C)nc4n3)(CO1)C2 [Example 163, N-(1-((1S,2R)-2-fluorocyclopropyl)-2-oxo-1,2-dihydropyridin-3-yl)-7-isopropoxy-2-(1-(methoxymethyl)-2-oxabicyclo[2.1.1]hexan-4-yl)imidazo[1,2-a]pyrimidine-6-carboxamide] |

| Compound | solubility kinetic at 24 h [µg/mL] |
| --- | --- |
| CCC12CC(c3cn4cc(C(=O)Nc5cccn(C6CC6)c5=O)c(OC(C)C)nc4n3)(CO1)C2 [Example 31] | 24.2 (≈ 52.2 µM) |
